Laboratory results taken from PubChem BioAssay (NCI).
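Tested at 5 concentrations; 48 h exposure; 96-well plates; endpoints linearly interpolated, else capped at highest concentration. TGI denotes the concentration required for complete inhibition of growth.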

What was measured:
Assay in all cases: NCI anticancer screen, dose series, 48 h
[1] = system: OVCAR-4 ovarian
[2] = system: MDA-MB-231 breast
[3] = system: HOP-92 NSCLC
[4] = system: KM12 colon
[5] = system: SF-295 CNS
[6] = system: DU-145 prostate
[7] = system: UACC-257 melanoma
[8] = system: MDA-MB-435
[9] = system: 786-0 renal
[10] = system: MOLT-4 leukemia
[11] = system: HCT-15 colon
[12] = system: OVCAR-3 ovarian
[13] = system: A549 NSCLC
[14] = system: ACHN renal
[15] = system: NCI-H226 lung
[16] = system: RXF 393 renal

SMILES | TGI [1] [µM] | TGI [2] [µM] | TGI [3] [µM] | TGI [4] [µM] | TGI [5] [µM] | TGI [6] [µM] | TGI [7] [µM] | TGI [8] [µM] | TGI [9] [µM] | TGI [10] [µM] | TGI [11] [µM] | TGI [12] [µM] | TGI [13] [µM] | TGI [14] [µM] | TGI [15] [µM] | TGI [16] [µM]
C1CC[C@H]2SSC3CCCC[C@H]3SSC2C1 (stereo not given in full) | > 100 | > 100 | > 100 | > 100 | > 100 | > 100 | > 100 | > 100 | > 100 | > 100 | > 100 | > 100 | > 100 |  |  | 
COc1ccc(C2CC3(c4ccccc4)ON=C(c4ccccc4)N3c3ccccc3S2)cc1 (stereo not given) | > 100 | > 100 |  | > 100 | > 100 | > 100 | > 100 | > 100 | > 100 |  | > 100 | > 100 | > 100 | > 100 | > 100 | > 100
O=Cc1ccc(CCl)cc1 |  |  | 52.5 | 60.3 | 32 |  | 36.5 |  |  | > 100 | 31.9 | 34.9 | > 100 | 54 |  | 31
CN1CN(c2ccccc2)C2(CCN(CCC3COc4ccccc4O3)CC2)C1=O (stereo not given) |  | > 100 |  | 66.7 | 37.2 | > 100 | 31 | 89.4 | > 100 | 70.1 | > 100 | 48.7 | > 100 | > 100 | 85.1 | > 100
COc1ccc(C(=O)/C=C/c2ccc(OCCSCCCCCCCCCCSCCOc3ccc(/C=C/C(=O)c4ccc(OC)c(OC)c4)cc3)cc2)cc1OC |  | > 100 |  | > 100 | > 100 | > 100 | > 100 | > 100 | > 100 | > 100 | > 100 |  | > 100 | > 100 |  | 
CSc1nc2c(ncn2C2OCC(O)C(O)C2O)c(=O)n1C (stereo not given) | > 100 |  | > 100 | > 100 | > 100 |  | > 100 |  |  | > 100 | > 100 | > 100 | > 100 |  | > 100 | > 100
Cc1ccc(S(=O)c2sccc2C=O)cc1 (stereo not given) | 75 | > 100 |  | 70.3 | 71.3 | > 100 | > 100 | 62.6 | > 100 | 59.1 | 85.8 |  | > 100 | > 100 |  | > 100
O=C1CSC(c2c[nH]c3ccccc23)N1c1ccccc1[N+](=O)[O-] (stereo not given) | > 100 | > 100 | > 100 | > 100 | > 100 | > 100 | > 100 | > 100 | > 100 | > 100 | > 100 | > 100 | > 100 |  |  | 
CC(=O)NC(Cc1ccsc1)C(=O)O (stereo not given) | > 100 |  | > 100 | > 100 | > 100 |  | > 100 |  |  | > 100 | > 100 | > 100 | > 100 |  | > 100 | > 100
NC12CCC(CC1=O)C2 (stereo not given) | > 100 | > 100 | > 100 | > 100 | > 100 | > 100 | > 100 | > 100 |  | > 100 | > 100 | > 100 | > 100 | > 100 | > 100 | 
O=C(O)C12CCCCC1CCCC2 (stereo not given) | > 100 |  | > 100 | > 100 | > 100 |  |  |  |  | > 100 | > 100 | > 100 | > 100 | > 100 | > 100 | 
CC1C(OC2O[C@@H]3O[C@@]4(C)CC[C@H]5[C@H](C)CC[C@@H](C2C)[C@@]35O4)O[C@@H]2O[C@@]3(C)CC[C@H]4[C@H](C)CC[C@@H]1[C@@]24O3 (stereo not given in full) | > 50 | > 50 |  | > 50 | > 50 | > 50 | > 50 | > 50 | > 50 | > 50 | > 50 | > 50 | > 50 | > 50 | > 50 | 
CC1CCC2(CC1)NC1=C(CC(C)CC1)C1=C2CC(C)CC1 (stereo not given) | 94.2 | 53.9 | 39.4 | 40.2 | 36.9 | > 100 | 72.9 |  | 39.1 | 53 | 45.9 | 37.4 | > 100 | 62.8 | 30.8 | 30.7
Brc1ccc2c(c1)-c1nc3nc4c(cc3cc1CC2)CCc1ccc(Br)cc1-4 | > 100 | > 100 | > 100 | > 100 | > 100 |  | > 100 | > 100 | > 100 | > 100 | > 100 | > 100 | > 100 | > 100 | > 100 | > 100
COC(=O)C(C/C=C(\C)c1ccc(Cl)cc1)C(C)=O (stereo not given) | > 100 |  | 64.2 | > 100 | > 100 |  | > 71.3 |  |  | 41.2 | > 100 | > 100 | > 90.6 |  | > 91 | > 95.9
COC(=O)CCC(C)C1CCC2C3C(C[C@H](OC(C)=O)[C@]12C)[C@@]1(C)CCC2(C[C@H]1C[C@H]3OC(C)=O)OOC1(CC[C@]3(C)C4C[C@H](OC(C)=O)[C@]5(C)C(C(C)CCC(=O)OC)CCC5C4[C@H](OC(C)=O)C[C@@H]3C1)OO2 (stereo not given in full) | > 100 | > 100 |  | > 100 | > 100 | > 100 | > 100 | > 100 | > 100 | > 100 | > 100 | > 100 | > 100 | > 100 | > 100 | > 100
COc1cccc(NC(=O)C(=O)C(C(=O)c2ccccc2F)C2OC(=O)c3ccccc32)c1 (stereo not given) | > 100 |  | > 100 | > 100 | > 100 |  | > 100 |  |  | > 100 | > 100 |  | > 100 | > 100 | 63.5 | 63.6

SMILES | TGI [1] [µM] | TGI [2] [µM] | TGI [3] [µM] | TGI [4] [µM] | TGI [5] [µM] | TGI [6] [µM] | TGI [7] [µM] | TGI [8] [µM] | TGI [9] [µM] | TGI [10] [µM] | TGI [11] [µM] | TGI [12] [µM] | TGI [13] [µM] | TGI [14] [µM] | TGI [15] [µM] | TGI [16] [µM]
C=C[C@]1(C)CCC2=C(CCC3C2(C)CCC[C@@]3(C)COC(C)=O)C1 (stereo not given in full) | > 100 |  | 35 | 34.7 | 32.5 |  | 53 |  | 31.8 | 30.3 | 30.8 | 32.1 | 52.5 | 38.7 | 34.6 | 37.8
COC(=O)C1=C(OC(=O)/C=C/c2ccc(Cl)cc2)C(C(=O)OC)[C@@]2(O)[C@@H](C(=O)OC)[C@H](C)C[C@@H]1[C@@H]2C(=O)OC (stereo not given in full) | > 100 | 64.9 |  | > 100 | > 100 | > 100 | > 100 | > 100 |  | 96.4 | 57 | > 100 | > 100 | 80 | 61 | > 100
Cc1cccc(-c2cc(=O)c3c(C)cc(C)nc3[nH]2)c1 | > 100 | 31.8 | > 100 | 21.9 | > 63.8 | > 100 | > 100 |  | > 100 | > 100 | > 56 | 4.6 | > 100 | > 100 | 31.4 | > 100
COC(=O)C1(C(=O)OC)N=C(C)OC1/C=C/c1ccccc1 (stereo not given) | > 100 |  | > 100 | > 100 | > 100 | > 100 | > 100 | > 100 | > 100 | > 100 | > 100 | > 100 | > 100 | > 100 | > 100 | > 100
CC(OC(=O)C(CC(=O)OC(C)(C)C)NC(=O)OC(C)(C)C)C(=O)OCc1ccccc1 (stereo not given) | > 100 | > 100 |  | > 100 | > 100 | > 100 | > 100 | > 100 | > 100 | > 100 | > 100 | > 100 | > 100 | > 100 | > 100 | > 100
CC(=O)OC1COC(N2C(=O)C(=O)c3cc(Br)ccc32)C(OC(C)=O)C1OC(C)=O (stereo not given) | > 100 |  | > 100 | > 100 | > 100 |  | > 100 |  | > 100 | > 100 | > 100 | > 100 | > 100 | > 100 | > 100 | > 100
Cc1c2ccncc2c(C)c2c1[nH]c1ccc(OCC(F)(F)F)cc12 | 3.48 |  |  | 2.79 | 3.01 |  | 3.42 |  | 2.9 | 3.26 | 2.56 | 3.29 | 3.3 | 2.88 | 3.24 | 3.46
O=C(c1ccc(Cl)cc1)N(C(=S)OCc1ccccn1)c1ccccc1 |  | > 100 |  | > 100 | > 100 | > 100 | > 100 | > 100 | > 100 | > 100 | > 100 | > 100 |  | > 100 | > 100 | 56.6
COC1(O)c2cccc(Cl)c2C(=O)N1C1(C(N)=O)CCCCC1 (stereo not given) | > 100 |  | 40.7 | > 100 | > 100 |  | > 100 |  |  | > 100 | > 100 | > 100 | > 100 |  | > 100 | > 100
CC(C)(CCCCC(C)(C)[N+](C)(C)C)[N+](C)(C)C | > 100 | > 100 |  |  |  |  | > 100 | > 100 | > 100 | > 100 | > 100 |  | > 100 |  |  | 
OCCOc1ccccc2cccc1-2 | > 100 | > 100 | > 100 | > 100 | > 100 | > 100 | > 100 | > 100 | > 100 |  | > 100 | > 100 | > 100 | > 100 | > 100 | 
O=C1C=CC(=O)c2c1ccc1c3ccccc3n(-c3ccccc3[N+](=O)[O-])c21 | 10.2 | 7.88 |  | 35.8 | > 56.7 | 18.9 | 13.1 | 5.6 |  | > 100 | 9 |  | > 64.8 | 3.46 | 50.3 | 3.24
COc1cc2c(cc1OCCCCOc1cc3c(cc1OC)C(=O)N1CCC[C@H]1C(=O)N3)N=C[C@@H]1CCCN1C2=O | 27.7 | 8.7 |  | 22.2 | 26 | 44.3 | 29.3 | 14.4 | 39.2 | 4.69 | 24.6 | 25.7 | 44.9 | 27.9 | 26.7 | 14.8
COc1cc(C2C(Cl)C(=O)N2NC(=O)c2ccc(N)cc2)cc(Br)c1O (stereo not given) | 35.1 |  | 39.8 | 30.7 | 27.7 |  | 35.9 |  | 26 | 20 | 28.8 | 20.8 | 42.8 | 45.1 | 46.2 | 
Ic1cc2c(cc1C1SCCCS1)OCO2 | > 100 |  | > 100 | > 100 | > 100 |  | > 100 |  | > 100 | > 100 | > 100 | > 100 | > 100 | > 100 | > 100 | > 100
O=C(CNC(c1ccccc1)(c1ccccc1)c1ccccc1)NC1CCCCC1NC(=O)CNC(c1ccccc1)(c1ccccc1)c1ccccc1 (stereo not given) | > 100 | > 100 | 78.7 | > 100 | > 100 | > 100 | > 100 | > 100 | > 100 | > 100 | > 100 | > 100 | > 100 | > 100 |  | 
